This data set can be described thus: in vitro. Particulars: human, hela cells, % viability.
Turning to `Cc1cc(NC(=O)C2CC2)sc1C(=O)NC(C)c1ccc(F)cc1F` (centres unmarked) [CBK296625], the viability at 28.5 h, 10 µM was 104%. Then `Cc1cc2oc(=O)cc(COC(=O)c3ccc(-n4cccn4)cc3)c2cc1Cl` [CBK296626], with 93.9%; and `COc1ccc(OCCN(C)c2cnn(-c3ccc(C(=O)O)cc3)c(=O)c2Cl)cc1` [CBK296627], with 104%; and `O=C(O)Cc1ccc(OCC(=O)NCc2ccc(Cl)cc2Cl)cc1` [CBK296628], with 109%. Then `Cc1oc(CSc2nnc(NCc3ccc(F)cc3)s2)cc1C(=O)O` [CBK296629], with 91.6%.

With `O=C(O)Cc1ccc(OCC(=O)NCCCSc2ccccc2)cc1` [CBK296630], the viability at 28.5 h, 10 µM is 91.9%. Then `O=C(O)C(CCO)Sc1nnc(Nc2ccc(Oc3ccccc3)cc2)s1` (centres unmarked) [CBK296631], with 85.7%. Then `Cn1c(Cc2csc(NC(=O)c3ccc(Cl)cc3F)n2)n[nH]c1=S` [CBK296635], with 94.7%; and `CCn1c2ccccc2c2cc(NC(=O)C(C)Sc3n[nH]c(=O)n3C3CC3)ccc21` (centres unmarked) [CBK296636], with 107%; and `COC(=O)c1c(C)[nH]c(C(=O)N2CCCC2c2cccnc2)c1C` (centres unmarked) [CBK296639], with 98.8%.

Turning to `COC(=O)c1ccc(F)c(NC(=O)C2CCCC2)c1` [CBK296640], the viability at 28.5 h, 10 µM came to 85.5%. For the molecule `CCN(Cc1ccc(OC)c(OC)c1)C(=O)CSc1nc(CC(=O)O)cs1` [CBK296643], the viability at 28.5 h, 10 µM came out at 97.5%. Under `CCNC(=O)COc1ccc(C=Cc2nc(-c3ccccc3)c(C(=O)O)s2)cc1OCC` [CBK296644] stands 94.6%; under `CC1CCN(C(=O)c2cc(-c3ccco3)[nH]n2)CC1` [CBK296648], 101%; under `O=c1oc2ccccc2n1Cc1coc(-c2ccccc2)n1` [CBK296649], 98.1%.

`COc1ccc(N2C(=O)CC(Nc3cc(C(=O)O)ccc3C)C2=O)c(OC)c1` (centres unmarked) [CBK296650]: the viability at 28.5 h, 10 µM came out at 114%.

Regarding `O=C(COc1ccccc1[N+](=O)[O-])Nc1nc2c(s1)CCC2` [CBK296663], the viability at 28.5 h, 10 µM turned out to be 85.1%. Take `O=C(O)CC1(CC(=O)Nc2ccc(N3CCCC3=O)c(Cl)c2)CCCCC1` [CBK296664]: the viability at 28.5 h, 10 µM came to 96.3%. Then `O=C(c1ccc(Cl)cc1)N1CCN(C(=O)c2cc(O)nc3ccccc23)CC1` [CBK296666], with 103%. Under `O=C(NCC1(c2ccccc2)CCC1)C1CCCN(C(=O)c2ccoc2)C1` (centres unmarked) [CBK296670] stands 85.6%; under `Cc1ccc(S(N)(=O)=O)cc1C(=O)NC(C)CCc1ccccc1` (centres unmarked) [CBK296671], 87.2%; under `O=C(O)c1cccc(CSCC(=O)N2CCC(Cc3ccccc3)CC2)c1` [CBK296675], 102%. In the case of `COc1cc(C(C)=O)ccc1OCC(O)Cn1c(=O)n(-c2ccccc2)c(=O)c2ccccc21` (centres unmarked) [CBK296677], the viability at 28.5 h, 10 µM was 94.4%. Under `COc1ccc(C(NC(=O)CSCc2cccc(C(=O)O)c2)c2ccc(OC)cc2)cc1` [CBK296680] stands 97.6%; under `Cc1cc(N2CCN(C(=O)c3c[nH]c(=O)[nH]3)CC2)nc(C(C)C)n1` [CBK296681], 111%. Under `CC(NC(=O)c1nn(-c2ccc(F)cc2)c2c1CCCC2)c1ccc2c(c1)OCCO2` (centres unmarked) [CBK296682] stands 103%. Under `COc1cc(C(=O)Nc2nc(Cc3n[nH]c(=S)n3C)cs2)ccc1C` [CBK296683] stands 90.6%; under `O=C(c1ccc2c(c1)OCO2)N1CCN(C(=O)c2ccc(Cl)cc2F)CC1` [CBK296685], 99%; under `O=C(NCCCOc1ccccc1)N1CCN(S(=O)(=O)c2ccc(C(F)(F)F)cc2)CC1` [CBK296686], 87.9%. With `Cc1cccc2sc(NC(=O)CCCCCNC(N)=O)nc12` [CBK296689], the viability at 28.5 h, 10 µM turned out to be 106%. Then `O=c1c2cccnc2ncn1CC(O)COc1ccc(-c2ccccc2)cc1` (centres unmarked) [CBK296690], with 99.1%. Under `CCCCn1c(SCCC(=O)Nc2ccccc2C(=O)c2ccccc2)n[nH]c1=O` [CBK296693] stands 87.3%; under `Cc1ccc(NC(=O)c2ccccc2NS(=O)(=O)c2cccc(C(=O)O)c2)cc1` [CBK296695], 122%. Under `Cc1ccc(C)c(-c2csc(NS(=O)(=O)c3cccc(C(=O)O)c3)n2)c1` [CBK296696] stands 86.7%; under `O=C(O)c1cccc(S(=O)(=O)Nc2ccccc2C(=O)NCc2ccccc2)c1` [CBK296697], 106%; under `Cc1cc(C)c(-c2csc(NS(=O)(=O)c3cccc(C(=O)O)c3)n2)cc1C` [CBK296698], 118%. With `Cc1nn(-c2ccc(F)cc2)c(C)c1C(=O)NCc1ccnc(N2CCCC2)c1` [CBK296700], the viability at 28.5 h, 10 µM was 93.3%. Regarding `COCCN(CCOC)C(=O)COc1c(Cl)cc(C(=O)O)cc1Cl` [CBK296704], the viability at 28.5 h, 10 µM is 92.3%. Under `CC(C)C(NC(=O)c1ccc(CS(C)(=O)=O)cc1)c1ccc(C(C)(C)C)cc1` (centres unmarked) [CBK296705] stands 102%; under `O=C(O)c1sccc1S(=O)(=O)NCc1ccc(COCC(F)(F)F)cc1` [CBK296706], 110%. Then `O=C(O)c1sccc1S(=O)(=O)NCc1ccc(Cn2cccn2)cc1` [CBK296707], with 99.4%. Under `CN(Cc1c(F)cccc1Cl)C(=O)CSc1nc(CC(=O)O)cs1` [CBK296708] stands 95.3%; under `O=C(c1cccc(S(=O)(=O)Nc2ccc(Br)cc2)c1)N1CCCC1` [CBK296709], 67.4%; under `O=C(O)c1cc(S(=O)(=O)Nc2ccc3nc(N4CCCC4)sc3c2)ccc1Br` [CBK296710], 91.5%. `O=C(Nc1ccnn1Cc1cc(Br)cs1)c1ccc2ncsc2c1` [CBK296713]: the viability at 28.5 h, 10 µM is 105%. Under `CN(Cc1nc2ccccc2c(=O)[nH]1)Cc1cc2c(cc1Br)OCCO2` [CBK296715] stands 108%; under `CCN(CC(=O)Nc1ccc2c(c1)OCCO2)S(=O)(=O)c1ccsc1C(=O)O` [CBK296717], 95.5%; under `CC(c1ccccc1)N(C)C(=O)Cn1c(-c2cccs2)n[nH]c1=S` (centres unmarked) [CBK296718], 95.6%.

On to `CN(CCOc1ccc(Cl)cc1)C(=O)COc1cc2ccccc2cc1C(=O)O` [CBK296720], for which the viability at 28.5 h, 10 µM came to 108%. Under `COc1cc(C=CC(=O)O)ccc1OCC(=O)NCC(C)C` [CBK296721] stands 107%; under `CC(Oc1ccc(Br)cc1)C(=O)Nc1nc2c(s1)CCC2` (centres unmarked) [CBK296723], 84.8%; under `O=C(Nc1nccs1)C1CCCN(C(=O)c2ccco2)C1` (centres unmarked) [CBK296725], 98.7%. Then `O=C(O)c1cc(NS(=O)(=O)c2ccc3c(c2)OCCCO3)ccc1F` [CBK296731], with 104%; and `CCCCn1c(SCC(=O)N(C)Cc2cnn(-c3ccccc3)c2)n[nH]c1=O` [CBK296732], with 106%. Under `Cc1cccc(-c2n[nH]c(=S)n2CCC(=O)Nc2ccc(N3CCCC3=O)c(C)c2)c1` [CBK296733] stands 89.1%; under `COc1ccc(CC(=O)Nc2cccc(OC(F)(F)F)c2)cc1OC` [CBK296734], 88.1%; under `CCOc1ccc(-c2nc(CSc3n[nH]c(=O)n3CCc3ccccc3)cs2)cc1` [CBK296735], 94.7%. As to `CCCCn1c(SCC(=O)NCC2(c3ccc4c(c3)OCCO4)CCCC2)n[nH]c1=O` [CBK296736], the viability at 28.5 h, 10 µM was 99.6%.

Take `CSCc1nnc(SCc2ccccc2Oc2ccccc2)o1` [CBK296743]: the viability at 28.5 h, 10 µM was found to be 99.2%. Under `CC(=O)c1cc(C(=O)NCc2ccc(C)cc2)n(C)c1` [CBK296750] stands 85.1%. Consider `CC(C)c1cccc(N2CC(C(=O)Nc3cc(S(C)(=O)=O)ccc3F)CC2=O)c1` (centres unmarked) [CBK296751], for which the viability at 28.5 h, 10 µM came to 96.8%. Under `CC(=O)Nc1ccc(NC(=O)Cc2n[nH]c(=S)n2Cc2ccccc2)cc1` [CBK296754] stands 91.1%. Then `Cc1noc2nc(-c3ccccc3F)cc(C(=O)N3CCCC3c3nnc4ccccn34)c12` (centres unmarked) [CBK296756], with 93.2%; and `CCNc1nc2ccccn2c(=O)c1C=C1SC(=S)N(CCCC(=O)O)C1=O` [CBK296757], with 87.9%. Under `COC(=O)c1ccc(NC(=O)c2oc3ccc(Br)cc3c2C)cc1` [CBK296758] stands 95.7%; under `O=S(=O)(Nc1ccc(N2CCOCC2)cc1)c1cccc(OC(F)(F)F)c1` [CBK296759], 95.1%. Take `COc1ccc(CNC(=O)c2cc(O)nc3ccccc23)cc1OC` [CBK296763]: the viability at 28.5 h, 10 µM turned out to be 90.2%. Then `O=C(Cn1cnc2ccc(F)cc2c1=O)N1Cc2ccccc2C(c2ccccc2)C1` (centres unmarked) [CBK296767], with 95.1%; and `COc1cc2c(cc1OC)CN(S(=O)(=O)c1cc(C(=O)O)ccc1Cl)CC2` [CBK296923], with 96%. Under `CC(Sc1nc(N)cc(N)n1)C(=O)c1ccc(F)c(F)c1` (centres unmarked) [CBK296928] stands 94.7%; under `CCOC(=O)c1c(-c2ccc(Cl)cc2)csc1NC(=O)CCCC(=O)O` [CBK296929], 91%; under `O=C(O)CCCC(=O)NCCc1ccc(Cl)cc1Cl` [CBK296930], 88.8%. Under `CCOC(=O)c1ccc(NC(=O)Cc2c(C(=O)O)nnn2-c2cccc(C(F)(F)F)c2)cc1` [CBK296932] stands 106%; under `O=C(Cn1nnc2ccccc2c1=O)NC(Cc1ccccc1)c1ccccc1` (centres unmarked) [CBK296933], 96.6%; under `CCOc1ncccc1C(=O)N(Cc1nnc(-c2ccc(Cl)cc2)o1)C1CC1` [CBK296934], 96.3%.

Take `CC(C)c1ccc(S(=O)(=O)N2CCN(c3ncnc4c3oc3ccccc34)CC2)cc1` [CBK296936]: the viability at 28.5 h, 10 µM was 84.9%. Under `O=C(CCc1nc2ccccc2c(=O)[nH]1)N1CCN(Cc2ccc(Cl)s2)CC1` [CBK296937] stands 83.9%.

As a reminder, the viability is a read-out of living cells in per cent, often relative to untreated cells.
